How the values were obtained:
[1] = test system: FU-OV-1 (Ovarian Carcinoma); assay: Bliss excess, mean over the matrix (fraction); higher = more synergy
Procedure, shortened: (§1)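 Bliss excess equals the observed combination effect minus the expected value EA + EB − EA·EB, where EA and EB are the effects of each agent alone. Combination Emax is the second-highest inhibition within the matrix. Inhibition was scaled from CellTiter-Glo 2.0 luminescence, with 0 set by vehicle wells and 1 by blank wells, after 72 hours of two-drug dosing of cells plated in 1536-well plates.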

[2] = test system: GDM-1 (Acute Myeloid Leukemia); assay: combination Emax (second highest fraction inhibited in the dose matrix, 72 h); higher = more inhibition; extreme values may be limits of the assay
Procedure, shortened: as §1

[3] = test system: 647-V (Bladder Carcinoma); assay: as above
Procedure, shortened: as §1

[4] = test system: MEG-01 (Chronic Myelogenous Leukemia); assay: as above
Procedure, shortened: as §1

[5] = test system: SKN-3 (Head and Neck Carcinoma); assay: as above
Procedure, shortened: as §1

[6] = test system: RCC10RGB (Kidney Carcinoma); assay: as above
Procedure, shortened: as §1

[7] = test system: DOK (Oral Cavity Carcinoma); assay: as above
Procedure, shortened: as §1

[8] = test system: SLVL (B-Cell Non-Hodgkin's Lymphoma); assay: as above
Procedure, shortened: as §1

[9] = test system: FU-OV-1 (Ovarian Carcinoma); assay: as above
Procedure, shortened: as §1

[10] = test system: SK-UT-1 (Other Solid Carcinomas); assay: as above
Procedure, shortened: as §1

[11] = test system: SK-LMS-1 (Other Solid Carcinomas); assay: as above
Procedure, shortened: as §1

[12] = test system: MES-SA (Other Solid Carcinomas); assay: as above
Procedure, shortened: as §1

[13] = test system: NOMO-1 (Acute Myeloid Leukemia); assay: as above
Procedure, shortened: as §1

[14] = test system: JHH-6 (Hepatocellular Carcinoma); assay: as above
Procedure, shortened: as §1

SMILES	Bliss excess [1]	combination Emax [2]	combination Emax [3]	combination Emax [4]	combination Emax [5]	combination Emax [6]	combination Emax [7]	combination Emax [8]	combination Emax [9]	combination Emax [10]	combination Emax [11]	combination Emax [12]	combination Emax [13]	combination Emax [14]
CN(CCO)CC[C@H](CSc1ccccc1)Nc1ccc(S(=O)(=O)NC(=O)c2ccc(N3CCC([C@@H](O)c4ccccc4-c4ccc(Cl)cc4)CC3)cc2)cc1S(=O)(=O)C(F)(F)F [AZD4320] + C[C@@H](Nc1cc(F)cc(F)c1)c1cc(C(=O)N(C)C)cc2c(=O)cc(N3CCOCC3)oc12 [AZD8186] (first compound max 1 µM, 7x7, partner max 3 µM)	-0.0284	1	0.989	0.773	0.277	0.507	0.301	0.955	0.558	0.273	0.94	0.297	0.636	0.326
CN(CCO)CC[C@H](CSc1ccccc1)Nc1ccc(S(=O)(=O)NC(=O)c2ccc(N3CCC([C@@H](O)c4ccccc4-c4ccc(Cl)cc4)CC3)cc2)cc1S(=O)(=O)C(F)(F)F [AZD4320] + Cn1cnc2c(F)c(Nc3ccc(Br)cc3Cl)c(C(=O)NOCCO)cc21 [Selumetinib] (first compound max 1 µM, 7x7, partner max 3 µM)	0.0354	1	0.971	–	0.355	0.576	0.562	0.966	0.619	0.345	0.924	0.246	1	0.35
COc1cccc(OCCCN)c1-c1cc(Nc2cnc(C#N)cn2)n[nH]1 [Prexasertib] + CCc1c2c(nc3ccc(O)cc13)-c1cc3c(c(=O)n1C2)COC(=O)[C@]3(O)CC [SN-38] (first compound max 1 µM, 7x7, partner max 0.3 µM)	0.0846	0.99	1	0.94	0.885	0.825	0.627	0.968	0.806	0.982	0.891	0.762	1	0.79
COc1cccc(OCCCN)c1-c1cc(Nc2cnc(C#N)cn2)n[nH]1 [Prexasertib] + O=C(c1cc(Cc2n[nH]c(=O)c3ccccc23)ccc1F)N1CCN(C(=O)C2CC2)CC1 [Olaparib] (first compound max 1 µM, 7x7, partner max 10 µM)	–	0.91	0.843	0.893	0.616	0.479	0.418	0.974	–	0.957	0.676	0.809	1	0.499
COc1cc2c(cc1OCCCCCOc1cc3c(cc1OC)C(=O)N1C=C(C)C[C@H]1C=N3)N=C[C@@H]1CC(C)=CN1C2=O [SG3199] + O=C(c1cc(Cc2n[nH]c(=O)c3ccccc23)ccc1F)N1CCN(C(=O)C2CC2)CC1 [Olaparib] (first compound max 0.001 µM, 7x7, partner max 10 µM)	–	0.32	0.276	0.111	0.0527	0.148	0.121	0.518	–	0.046	0.2	0.43	0.145	0.113
CCc1c2c(nc3ccc(O)cc13)-c1cc3c(c(=O)n1C2)COC(=O)[C@]3(O)CC [SN-38] + CN(C)CCCOc1ccc(-c2ccc3ncc4c(c3c2)n(C2CCOCC2)c(=O)n4C)cn1 [AZD0156] (first compound max 0.3 µM, 7x7, partner max 1 µM)	–	0.937	0.985	0.73	0.47	0.689	0.488	0.972	–	0.97	0.914	0.782	0.98	0.326
CC(=O)Nc1cccc(-n2c(=O)n(C3CC3)c(=O)c3c(Nc4ccc(I)cc4F)n(C)c(=O)c(C)c32)c1 [Trametinib] + Cc1nc(-c2cn3c(n2)-c2ccc(-c4cnn(C(C)(C)C(N)=O)c4)cc2OCC3)n(C(C)C)n1 [Taselisib] (first compound max 1 µM, 7x7, partner max 10 µM)	–	0.88	0.456	0.953	0.655	0.69	0.998	0.478	–	0.597	0.974	0.825	0.98	0.636
CC1(C)CCC(CN2CCN(c3ccc(C(=O)NS(=O)(=O)c4ccc(NCC5CCOCC5)c([N+](=O)[O-])c4)c(Oc4cnc5[nH]ccc5c4)c3)CC2)=C(c2ccc(Cl)cc2)C1 [Venetoclax] + C1CN(CCC1(C(=O)N[C@@H](CCO)C2=CC=C(C=C2)Cl)N)C3=NC=NC4=C3C=CN4 [Capivasertib] (first compound max 1 µM, 7x7, partner max 3 µM)	-0.0783	0.866	0.218	0.731	0.0823	0.197	0.331	0.786	0.151	0.34	0.271	0.355	0.919	0.232
CC1(C)CCC(CN2CCN(c3ccc(C(=O)NS(=O)(=O)c4ccc(NCC5CCOCC5)c([N+](=O)[O-])c4)c(Oc4cnc5[nH]ccc5c4)c3)CC2)=C(c2ccc(Cl)cc2)C1 [Venetoclax] + C=CCn1c(=O)c2cnc(Nc3ccc(N4CCN(C)CC4)cc3)nc2n1-c1cccc(C(C)(C)O)n1 [AZD1775] (first compound max 1 µM, partner max 1 µM)	-0.0599	1	0.612	0.913	0.402	0.572	0.333	0.978	0.612	0.921	0.61	0.787	0.99	0.296
CC1(C)CCC(CN2CCN(c3ccc(C(=O)NS(=O)(=O)c4ccc(NCC5CCOCC5)c([N+](=O)[O-])c4)c(Oc4cnc5[nH]ccc5c4)c3)CC2)=C(c2ccc(Cl)cc2)C1 [Venetoclax] + CCN(CCO)CCCOc1ccc2c(Nc3cc(CC(=O)Nc4cccc(F)c4)[nH]n3)ncnc2c1 [AZD2811] (first compound max 1 µM, 7x7, partner max 1 µM)	-0.0705	0.996	0.245	0.799	0.19	0.212	0.313	0.901	0.238	0.561	0.229	0.408	0.905	0.193
CC1(C)CCC(CN2CCN(c3ccc(C(=O)NS(=O)(=O)c4ccc(NCC5CCOCC5)c([N+](=O)[O-])c4)c(Oc4cnc5[nH]ccc5c4)c3)CC2)=C(c2ccc(Cl)cc2)C1 [Venetoclax] + CN(C)CCCOc1ccc(-c2ccc3ncc4c(c3c2)n(C2CCOCC2)c(=O)n4C)cn1 [AZD0156] (first compound max 1 µM, 7x7, partner max 1 µM)	-0.0223	0.679	0.196	0.782	0.134	0.174	0.2	0.848	0.291	0.381	0.5	0.138	0.912	0.212
CC1(C)CCC(CN2CCN(c3ccc(C(=O)NS(=O)(=O)c4ccc(NCC5CCOCC5)c([N+](=O)[O-])c4)c(Oc4cnc5[nH]ccc5c4)c3)CC2)=C(c2ccc(Cl)cc2)C1 [Venetoclax] + COc1cc(Nc2ncc3c(n2)-c2ccc(Cl)cc2C(c2c(F)cccc2OC)=NC3)ccc1C(=O)O [Alisertib] (first compound max 1 µM, 7x7, partner max 10 µM)	-0.0614	0.98	0.317	0.817	0.374	0.568	0.646	0.932	0.665	0.458	0.579	0.671	0.884	0.301
CC1(C)CCC(CN2CCN(c3ccc(C(=O)NS(=O)(=O)c4ccc(NCC5CCOCC5)c([N+](=O)[O-])c4)c(Oc4cnc5[nH]ccc5c4)c3)CC2)=C(c2ccc(Cl)cc2)C1 [Venetoclax] + C[C@@H]1COCCN1C2=NC(=NC(=C2)C3(CC3)[S@](=N)(=O)C)C4=C5C=CNC5=NC=C4 [AZD6738] (first compound max 1 µM, 7x7, partner max 10 µM)	-0.0444	0.946	0.698	0.883	0.576	0.5	0.414	0.939	0.485	0.895	0.548	0.671	0.973	0.459
CC1(C)CCC(CN2CCN(c3ccc(C(=O)NS(=O)(=O)c4ccc(NCC5CCOCC5)c([N+](=O)[O-])c4)c(Oc4cnc5[nH]ccc5c4)c3)CC2)=C(c2ccc(Cl)cc2)C1 [Venetoclax] + C[C@@H](Nc1cc(F)cc(F)c1)c1cc(C(=O)N(C)C)cc2c(=O)cc(N3CCOCC3)oc12 [AZD8186] (first compound max 1 µM, 7x7, partner max 3 µM)	-0.0594	0.934	0.17	0.646	0.148	0.447	0.188	0.746	0.412	0.206	0.412	0.168	0.931	0.193
CC1(C)CCC(CN2CCN(c3ccc(C(=O)NS(=O)(=O)c4ccc(NCC5CCOCC5)c([N+](=O)[O-])c4)c(Oc4cnc5[nH]ccc5c4)c3)CC2)=C(c2ccc(Cl)cc2)C1 [Venetoclax] + Cc1cc2ncnn2cc1Nc1ncc2c(n1)n(C1CCOCC1)c(=O)n2C [AZD7648] (first compound max 1 µM, 7x7, partner max 10 µM)	-0.036	0.842	0.209	0.737	0.0976	0.205	0.247	0.709	0.358	0.221	0.307	0.302	0.922	0.212
